Consider five compounds from US20080292673A1, “Bioactive agrichemical compositions and use therreof” (priority 2007, published 2008).

Read-outs that look alike come from different tables or passages of the source.

One assay has as its system E. amylovora 153N. The experiment in a line: Fire blight on crabapples (Example 287). Conditions: for shoot blight incidence, in words: evaluated on day 63; for canker, in words: length of cankers evaluated on day 63. It is filed as in vivo, Snow Drift crabapple trees. The method, then: A study of the bioefficacy of the various agrichemical compositions, including bioactive acid solutions and blends thereof with an antibiotic agrichemical, were evaluated to assess their bioefficacy against fire blight on crabapples. The study was conducted on 5 year old Snow Drift crabapple trees, with each of the compositions being applied to ten trees in two-subplots of five trees, four different times: at 100% bloom-day 1, a second application was made on day 4, a third on day 11 and a final treatment on day 19. The trees were inoculated with E. amylovora […] at a concentration of 4×10^6 cells per milliliter on day 1, following drying of the treatment, with the inoculation being repeated on day 13. Evaluation for fire blight was completed on 100 blossoms for each of the subplots on day 12, day 19 and day 27. Additionally, the incidence of shoot infection and the length of […] evaluated on day 63. The test compositions were prepared by forming solutions of the bioactive agents. Two different dilutions of the MI2 bioactive were evaluated; the first employing 94.46 ml/gallon (25 ml/l) of water (5 ppm of each metal) and the second 188.9 ml/gallon (50 ml/l) of water (10 ppm of each metal). […] Finally, copper hydroxide was diluted at a rate of 1 lb/gallon (119.8 g/l). Each of the compositions and blends were spray applied at a rate of 50 gallons (189.3 l) pre acre. The results are presented as the mean of the counts.

Assay [1] concerns Saccharomycetes Cerevisiae (Fleishmann's Bakers yeast). The experiment in a line: Saccharomycetes Cerevisiae yeast growth suppression, turbidity of broth suspension. The class given is cell-based. The following applies: for T18 − T0 (change in turbidity) / T48 − T0 (change in turbidity) / T72 − T0 (change in turbidity) / T96 − T0 (change in turbidity) / T18 (turbidity of yeast suspension) / T48 (turbidity of yeast suspension) / T72 (turbidity of yeast suspension) / T96 (turbidity of yeast suspension) / T0 (turbidity of yeast suspension): surfactant ~0.05 wt %; for T0 (turbidity of yeast suspension): time 0. The method, then:
Saccharomycetes Cerevisiae was selected as a test organism as it is generally accepted in the industry as an indicator or surrogate organism for a wide variety of fungi. In each of these experiments, the same general procedure was followed unless otherwise indicated.
Experimental Detail: A growth medium was prepared by adding 10 grams of nutrient medium (Difco Sabouraud dextrose broth from BD of Franklin Lakes, N.J., USA) to 300 ml of distilled water. Fleishmann's Bakers yeast was then added to the growth medium while mixing using a magnetic stirrer until a uniform dispersion was obtained having an initial turbidity of between about 50 and 100 NTU as measured using a HF Instruments DRT 100B Turbidity Meter. Once the appropriate dispersion was obtained, 20 ml aliquots were then dispensed, with continued mixing, into 40 ml borosilicate glass vials with Teflon lined caps (VWR International Cat. No. 15900-004). The system/component to be evaluated was then added to the vial and intimately shaken to ensure a good, substantially homogeneous mixture. The turbidity of each mixture was then determined and the vial transferred to an incubator at 30° C. Each vial was periodically removed from the incubator and the mixture in the vials assessed for turbidity: the specific timing for such evaluation was as set forth in the discussion of the experiments and the accompanying tables.
In each experiment, unless otherwise specified, a 2 ml aqueous solution containing the specified bioactive system or component thereof was added to the 20 ml yeast suspension and mixed thoroughly. Typically the surfactants were added separately in a concentrated solution in water; however, the volume added was negligible: a fraction of an ml. For convenience in understanding efficacy levels, the amounts or concentrations of the various components presented in each of the following tables and experiments are of the diluted material in the test vial: not of the concentrate added to the test vial. Furthermore, the concentrations presented are on the basis of a 20 ml total volume, not the actual 22+ ml volume. Multiplying each of the listed concentrations by 0.9 (or 0.95 with those compositions using 1 ml aqueous solutions) will provide a more accurate assessment of the concentrations of the various components evaluated, i.e., a 5 ppm silver concentration is actually closer to 4.5 ppm. Finally, for those vials to which no bioactive system or component thereof was added (the controls) or which only contained the surfactants, 2 ml of additional growth medium was added to ensure relative equivalent dilutions of the yeast.
In the tables below, the results are presented as the actual turbidity readings (NTU) with a sub-table presenting the change or delta in NTU values. Given the nature of the system, changes in turbidity are reflective of the relative performance/bioefficacy of the bioactive systems and their components.

Setting [2] is: Metal ppm 2.5, about 0.2% citric acid.
Setting [3] is: Metal ppm 2.5 each of copper, silver, zinc, about 0.2% citric acid.
The mark [4] stands for this setting: Metal ppm 5, approximately 0.4% citric acid.
The mark [5] stands for this setting: Metal ppm 5 each of copper, silver, zinc, approximately 0.4% citric acid.

For the compound `[Cu+2].[OH-].[OH-]` [copper hydroxide], in the assay with E. amylovora 153N, the “shoot blight incidence, in words” value is “greatly reduced” and the “canker, in words” value is on record as “appeared to prevent canker”.

`[H]/N=C(/N)N[C@H]1[C@H](O)[C@@H](O)[C@H](O[C@@H]2O[C@@H](C)[C@](O)(C=O)[C@H]2O[C@@H]2O[C@@H](CO)[C@H](O)[C@@H](O)[C@@H]2NC)[C@@H](N/C(N)=N\[H])[C@@H]1O` [streptomycin]: in the assay on E. amylovora 153N, the “shoot blight incidence, in words” value is reported as “greatly reduced” and the “canker, in words” value is on record as “appeared to prevent canker”.

As to `CCCCCCCCCCCCOS(=O)(=O)[O-].[Na+]`, in assay [1] (neat, Metal ppm 0), the “T18 − T0 (change in turbidity)” value is on record as 447, the “T48 − T0 (change in turbidity)” value was found to be 610, the “T72 − T0 (change in turbidity)” value is given as 594 and the “T96 − T0 (change in turbidity)” value worked out at 591. Besides, in assay [1] (neat, Metal ppm 0), the “T18 (turbidity of yeast suspension)” value came out at 495, the “T48 (turbidity of yeast suspension)” value came to 658, the “T72 (turbidity of yeast suspension)” value came out at 642 and the “T96 (turbidity of yeast suspension)” value was determined as 639. Moreover, the “T0 (turbidity of yeast suspension)” value in assay [1] (neat, Metal ppm 0) worked out at 48. In addition, in assay [1] (setting [2]), the “T18 − T0 (change in turbidity)” value turned out to be 2, the “T48 − T0 (change in turbidity)” value was 0, the “T72 − T0 (change in turbidity)” value is recorded as 0 and the “T96 − T0 (change in turbidity)” value is −1. Moreover, in assay [1] (setting [3]), the “T18 (turbidity of yeast suspension)” value was 90, the “T48 (turbidity of yeast suspension)” value was determined as 88, the “T72 (turbidity of yeast suspension)” value turned out to be 88 and the “T96 (turbidity of yeast suspension)” value came out at 87. In addition, the “T0 (turbidity of yeast suspension)” value in assay [1] (setting [3]) was determined as 88. For the same compound, in assay [1] (setting [4]), the “T18 − T0 (change in turbidity)” value is 13, the “T48 − T0 (change in turbidity)” value is on record as 2, the “T72 − T0 (change in turbidity)” value worked out at 7 and the “T96 − T0 (change in turbidity)” value stood at 1. For the same compound, in assay [1] (setting [5]), the “T18 (turbidity of yeast suspension)” value is given as 244, the “T48 (turbidity of yeast suspension)” value is listed as 233, the “T72 (turbidity of yeast suspension)” value was 238 and the “T96 (turbidity of yeast suspension)” value is 232. Besides, the “T0 (turbidity of yeast suspension)” value in assay [1] (setting [5]) is 231.

On to copper citrate [Example 13], for which, in assay [1], the “Change in Turbidity from T0 (delta NTU) T 96 Hours” value was determined as 1054.4 delta NTU, the “Change in Turbidity from T0 (delta NTU) T 18 hours” value amounted to 894.4 delta NTU, the “Change in Turbidity from T0 (delta NTU) T 24 hours” value came out at 975.4 delta NTU and the “Change in Turbidity from T0 (delta NTU) Time 1 Hr” value is reported as 22.4 delta NTU. For the same compound, in assay [1], the “Turbidity (NTU) T 96 Hours” value is listed as 1100 NTU, the “Turbidity (NTU) T 18 hours” value worked out at 940 NTU, the “Turbidity (NTU) T 24 hours” value worked out at 1021 NTU and the “Turbidity (NTU) Time 1 Hr” value was 68 NTU. The “Turbidity (NTU) Time zero” value in assay [1] is 45.6 NTU.

For the compound `O=C([O-])CC(O)(CC(=O)[O-])C(=O)[O-].[Ag+].[Ag+].[Ag+]` [Example 1, silver citrate], in assay [1] (Table 1, 1 hour at 30° C.), the “Turbidity (NTU) Time 1 Hr” value is on record as 59.6 NTU. The “Turbidity (NTU) T 18 hours” value in assay [1] (Table 1, 18 hours) was determined as 890 NTU. Also, the “Turbidity (NTU) T 24 hours” value in assay [1] (Table 1, 24 hours) amounted to 932 NTU. Further, the “Turbidity (NTU) T 96 Hours” value in assay [1] (Table 1, 96 hours) came out at 995 NTU. For the same compound, the “Turbidity (NTU) Time zero” value in assay [1] (Table 1, time zero) was 44.5 NTU. For the same compound, the “Change in Turbidity from T0 (delta NTU) Time 1 Hr” value in assay [1] (Table 1A, 1 hour minus time zero) stood at 15.1 delta NTU. Also, the “Change in Turbidity from T0 (delta NTU) T 18 hours” value in assay [1] (Table 1A, 18 hours minus time zero) came to 845.5 delta NTU. Also, the “Change in Turbidity from T0 (delta NTU) T 24 hours” value in assay [1] (Table 1A, 24 hours minus time zero) is on record as 887.5 delta NTU. Moreover, the “Change in Turbidity from T0 (delta NTU) T 96 Hours” value in assay [1] (Table 1A, 96 hours minus time zero) was 950.5 delta NTU.
